SMILES strings stand for the structures. Read-outs that look alike come from different tables or passages of the source.

The conditions of data set [1]: cited from earlier work.
For data set [2] the following is noted: ex-vivo dually perfused human cotyledon; cited from earlier work.
For data set [3], the system named is HIV. The note with it: compared to RAL and EVG; cited from earlier work.
For data set [4], the system named is pregnant rats. The settings on record: BIC orally up to 300 mg/kg/day, gestational day 6 to lactation/postpartum day 24; cited from earlier work.
Data set [5] relates to pregnant rabbits. The note with it: cited from earlier work.
For data set [6], the system named is pregnant rats. The note with it: BIC orally 5, 30, or 300 mg/kg/day, gestational day 7 through 17; cited from earlier work.
Data set [7] is described as follows: Amniotic fluid drug concentration in mouse pregnancy model (HPLC-MSMS). It is filed as in vivo, C57BL/6J mice. The settings on record: female, C57BL/6J, mouse, amniotic fluid / maternal plasma, oral, pregnant mice. An excerpt:
All animal experiments were approved by the University Health Network Animal Use Committee (protocol #2575) and performed according to the policies and guidelines of the Canadian Council on Animal Care. C57BL/6J mice bred in-house (original breeders from Jackson Laboratory RRID:IMSR JAX:000664) were maintained under a 12-h light/dark cycle, with ad libitum access to food and water. Animals were acclimated to their surroundings for 1 week prior to experiment initiation. Males were isolated for 7 days prior to mating. Female mice (7–12 weeks of age) were mated with males at a ratio of 2:1. Presence of vaginal plug was denoted as gestational day 0.5 (GD0.5). Pregnancy was confirmed by weight gain of >1.5 g on GD9.5 and >3 g on GD13.5. […] The equivalent mouse mg/kg dose was calculated based on the human dose divided by an assumed average human weight of 60 kg. […] On GD15.5, mice underwent saphenous bleed 24 h after the GD14.5 dose administration (trough). Immediately after the saphenous bleed, mice were dosed with the appropriate drug regimen and sacrificed 1 h post-treatment (peak), at which time blood was collected by cardiac puncture and amniotic fluid was collected by dissecting the uterus, puncturing the amniotic sac, and draining the amniotic fluid into a sterile dish. Amniotic fluid was pooled for the entire litter. Samples from 2 dams per arm were analyzed for drug levels.
Briefly, 50 μL of plasma or amniotic fluid was spiked with internal standard (ritonavir-d6) followed by protein precipitation with acetonitrile and filtration. Filtrates were diluted 1:9 with ammonium acetate buffer (10 mM) and analyzed by the HPLC-MSMS system, consisting of a Shimadzu Nexera XR high-performance liquid chromatograph (Shimadzu, Columbia, MD, USA) coupled with a SCIEX API 4500 QqQ mass spectrometer (SCIEX, Concord, ON, Canada). Chromatographic separation by Mobile Phase A (10% methanol, 5% 50 mM ammonium acetate, 85% 0.25% acetic acid pH 3.6 ± 0.2) and Mobile Phase B (90% methanol, 5% 50 mM ammonium acetate, 5% 0.25% acetic acid pH 6.6 ± 0.2) was performed under linear gradient conditions (flow rate 0.7 mL/min) on a reverse-phase Zorbax XDB-C18 column (Agilent Technologies, Santa Clara, CA, USA) maintained at 40 °C. […] HPLC-MSMS data were acquired using Analyst (v 1.6.3, SCIEX, Concord, ON, Canada) and analyzed with MultiQuant software (v 3.0.3, SCIEX, Concord, ON, Canada). […] Positive controls spiked in-house and prepared by an external laboratory during a sample exchange program were included in all runs.

For `COc1cc2c(cc1Cc1cccc(Cl)c1F)c(=O)c(C(=O)O)cn2[C@H](CO)C(C)C` [EVG, elvitegravir], the “Drug levels in pregnancy” value in data set [1] (second and third trimester) was “inadequate levels in the second and third trimester”.

For `O=C(NCc1c(F)cc(F)cc1F)c1cn2c(c(O)c1=O)C(=O)N1[C@H]3CC[C@H](C3)O[C@@H]1C2` [BIC, bictegravir], in data set [2], the Placental transfer result is “low placental transfer”. In addition, in data set [3], the “In vitro resistance profile” value was “improved in vitro resistance profile”. In data set [1] (interim report, 140 pregnancies in women treated with BIC during periconception or pregnancy), the Birth defects observed result is given as “three”. Also, the “Virological suppression through delivery” value in data set [1] (two pregnant women on BIC) is reported as “remained virologically suppressed through delivery”. In data set [4], the “Adverse effects in fetuses or pups” value was “no significant adverse effects in fetuses or pups”. The “Maternal and pregnancy findings” value in data set [5] (BIC 1000 mg/kg/day) is “Spontaneous abortion, decreased body weight, and maternal toxicity”. Besides, the Embryo-fetal effects result in data set [5] (BIC orally 100, 300, or 1000 mg/kg/day, gestational day 7 through 19) is “no adverse embryo-fetal effects”; in data set [6], “no adverse embryo-fetal effects”. The Kp at 1 h in data set [7] (1× to 10× BIC, 1 h after dosing, read-out: Ratio of drug in the amniotic fluid to that in maternal plasma) is 0.021 to 0.036; in data set [7] (20× BIC dose, 1 h after dosing, read-out: Ratio of drug in the amniotic fluid to that in maternal plasma), 0.112; in data set [7] (BIC 0.83 mg/kg (1×) oral gavage once daily GD11.5-GD15.5 with TDF 50 mg/kg + FTC 33.3 mg/kg, mean (SD), n=2, read-out: Amniotic: Maternal Plasma Ratio 1 h), 0.021; in data set [7] (BIC 4.15 mg/kg (5×) oral gavage once daily GD11.5-GD15.5 with TDF 50 mg/kg + FTC 33.3 mg/kg, mean (SD), n=2, read-out: Amniotic: Maternal Plasma Ratio 1 h), 0.021; in data set [7] (BIC 8.3 mg/kg (10×) oral gavage once daily GD11.5-GD15.5 with TDF 50 mg/kg + FTC 33.3 mg/kg, mean (SD), n=2, read-out: Amniotic: Maternal Plasma Ratio 1 h), 0.036; in data set [7] (BIC 16.6 mg/kg (20×) oral gavage once daily GD11.5-GD15.5 with TDF 50 mg/kg + FTC 33.3 mg/kg, mean (SD), n=2, read-out: Amniotic: Maternal Plasma Ratio 1 h), 0.112.
